Measured values reported in PubChem BioAssay AID1963978 (Molecular Pharmacology Branch, DTP, NCI, 2024).

Test system: 616215-338-R-J1-PDC spheroids with HUVEC/MSC, viability
Assay: Anticancer human tumor 616215-338-R-J1-PDC patient-derived colon adenocarcinoma cell line growth inhibition [PI3K]
Conditions: for IC50: curve of first compound; for viability, T/C: stronger effect = lower value
How it was run: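 Tumor cells grown as multi-cell spheroids with HUVEC endothelial cells and MSC fibroblast-like stroma were treated with targeted agents combined with inavolisib, alpelisib, duvelisib or copanlisib. Doses fell in half-log steps from near clinical Cmax, else from 10 microM. Viability was measured.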
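Further: spheroids exposed to agents for seven days before the viability read.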

With `CNC(=O)c1ccc(N2C(=S)N(c3ccc(C#N)c(C(F)(F)F)c3)C(=O)C2(C)C)cc1F` + CC(Nc1ccc2c(c1)OCCn1cc(N3C(=O)OCC3C(F)F)nc1-2)C(N)=O the IC50 (second compound 0.00316 µM) was > 10000 nM, the IC50 (second compound 0.01 µM) was > 10000 nM and the IC50 (second compound 0.0316 µM) was > 10000 nM. The IC50 (second compound 0.1 µM) was > 10000 nM, the IC50 (second compound 0.316 µM) was > 10000 nM and the IC50 (second compound 1 µM) was > 10000 nM. The viability, T/C (second compound 0.00316 µM, first compound 0.0316 µM) was 102%, the viability, T/C (second compound 0.00316 µM, first compound 0.1 µM) was 89.1% and the viability, T/C (second compound 0.00316 µM, first compound 0.316 µM) was 101%. The viability, T/C (second compound 0.00316 µM, first compound 1 µM) was 94.5%, the viability, T/C (second compound 0.00316 µM, first compound 3.16 µM) was 112% and the viability, T/C (second compound 0.00316 µM, first compound 10 µM) was 100%. The viability, T/C (second compound 0.01 µM, first compound 0.0316 µM) was 94.7%, the viability, T/C (second compound 0.01 µM, first compound 0.1 µM) was 101% and the viability, T/C (second compound 0.01 µM, first compound 0.316 µM) was 98.3%. It also gave a viability, T/C (second compound 0.01 µM, first compound 1 µM) of 105%, a viability, T/C (second compound 0.01 µM, first compound 3.16 µM) of 99.7% and a viability, T/C (second compound 0.01 µM, first compound 10 µM) of 95%. For the same molecule, the viability, T/C (second compound 0.0316 µM, first compound 0.0316 µM) was 105%, the viability, T/C (second compound 0.0316 µM, first compound 0.1 µM) was 94% and the viability, T/C (second compound 0.0316 µM, first compound 0.316 µM) was 102%. It also gave a viability, T/C (second compound 0.0316 µM, first compound 1 µM) of 97.9%, a viability, T/C (second compound 0.0316 µM, first compound 3.16 µM) of 99.8% and a viability, T/C (second compound 0.0316 µM, first compound 10 µM) of 102%. It also gave a viability, T/C (second compound 0.1 µM, first compound 0.0316 µM) of 102%, a viability, T/C (second compound 0.1 µM, first compound 0.1 µM) of 87.2% and a viability, T/C (second compound 0.1 µM, first compound 0.316 µM) of 110%. For the same molecule, the viability, T/C (second compound 0.1 µM, first compound 1 µM) was 97.7%, the viability, T/C (second compound 0.1 µM, first compound 3.16 µM) was 96.2% and the viability, T/C (second compound 0.1 µM, first compound 10 µM) was 108%. It also gave a viability, T/C (second compound 0.316 µM, first compound 0.0316 µM) of 95%, a viability, T/C (second compound 0.316 µM, first compound 0.1 µM) of 113% and a viability, T/C (second compound 0.316 µM, first compound 0.316 µM) of 107%. It also gave a viability, T/C (second compound 0.316 µM, first compound 1 µM) of 102%, a viability, T/C (second compound 0.316 µM, first compound 3.16 µM) of 102% and a viability, T/C (second compound 0.316 µM, first compound 10 µM) of 94.5%. The viability, T/C (second compound 1 µM, first compound 0.0316 µM) was 104%, the viability, T/C (second compound 1 µM, first compound 0.1 µM) was 94.2% and the viability, T/C (second compound 1 µM, first compound 0.316 µM) was 102%. The viability, T/C (second compound 1 µM, first compound 1 µM) was 104%, the viability, T/C (second compound 1 µM, first compound 3.16 µM) was 104% and the viability, T/C (second compound 1 µM, first compound 10 µM) was 86.7%.

Work on `Cn1cnc2c(F)c(Nc3ccc(Br)cc3Cl)c(C(=O)NOCCO)cc21` + COc1c(OCCCN2CCOCC2)ccc2c3n(c(=NC(=O)c4cnc(N)nc4)nc12)CCN3 yielded an IC50 (second compound 0.00316 µM) of 2230 nM, an IC50 (second compound 0.01 µM) of 1350 nM and an IC50 (second compound 0.0316 µM) of 810 nM. The IC50 (second compound 0.1 µM) was 413 nM, the IC50 (second compound 0.316 µM) was < 9.49 nM and the IC50 (second compound 1 µM) was < 9.49 nM. It also gave a viability, T/C (second compound 0.00316 µM, first compound 0.00949 µM) of 93.6%, a viability, T/C (second compound 0.00316 µM, first compound 0.03 µM) of 99.3% and a viability, T/C (second compound 0.00316 µM, first compound 0.0949 µM) of 91.1%. For the same molecule, the viability, T/C (second compound 0.00316 µM, first compound 0.3 µM) was 83.3%, the viability, T/C (second compound 0.00316 µM, first compound 0.949 µM) was 72.8% and the viability, T/C (second compound 0.00316 µM, first compound 3 µM) was 41.9%. It also gave a viability, T/C (second compound 0.01 µM, first compound 0.00949 µM) of 99.3%, a viability, T/C (second compound 0.01 µM, first compound 0.03 µM) of 95% and a viability, T/C (second compound 0.01 µM, first compound 0.0949 µM) of 85.4%. For the same molecule, the viability, T/C (second compound 0.01 µM, first compound 0.3 µM) was 86.5%, the viability, T/C (second compound 0.01 µM, first compound 0.949 µM) was 54.5% and the viability, T/C (second compound 0.01 µM, first compound 3 µM) was 38.1%. The viability, T/C (second compound 0.0316 µM, first compound 0.00949 µM) was 99.3%, the viability, T/C (second compound 0.0316 µM, first compound 0.03 µM) was 94.8% and the viability, T/C (second compound 0.0316 µM, first compound 0.0949 µM) was 73.7%. The viability, T/C (second compound 0.0316 µM, first compound 0.3 µM) was 76.3%, the viability, T/C (second compound 0.0316 µM, first compound 0.949 µM) was 42.5% and the viability, T/C (second compound 0.0316 µM, first compound 3 µM) was 24.7%. For the same molecule, the viability, T/C (second compound 0.1 µM, first compound 0.00949 µM) was 94%, the viability, T/C (second compound 0.1 µM, first compound 0.03 µM) was 86.7% and the viability, T/C (second compound 0.1 µM, first compound 0.0949 µM) was 76.1%. The viability, T/C (second compound 0.1 µM, first compound 0.3 µM) was 58.6%, the viability, T/C (second compound 0.1 µM, first compound 0.949 µM) was 30.9% and the viability, T/C (second compound 0.1 µM, first compound 3 µM) was 13.2%. For the same molecule, the viability, T/C (second compound 0.316 µM, first compound 0.00949 µM) was 37.6%, the viability, T/C (second compound 0.316 µM, first compound 0.03 µM) was 47.4% and the viability, T/C (second compound 0.316 µM, first compound 0.0949 µM) was 36.9%. For the same molecule, the viability, T/C (second compound 0.316 µM, first compound 0.3 µM) was 24.9%, the viability, T/C (second compound 0.316 µM, first compound 0.949 µM) was 11.7% and the viability, T/C (second compound 0.316 µM, first compound 3 µM) was 1.63%. For the same molecule, the viability, T/C (second compound 1 µM, first compound 0.00949 µM) was 22.2%, the viability, T/C (second compound 1 µM, first compound 0.03 µM) was 12.8% and the viability, T/C (second compound 1 µM, first compound 0.0949 µM) was 6.6%. It also gave a viability, T/C (second compound 1 µM, first compound 0.3 µM) of 2.1%, a viability, T/C (second compound 1 µM, first compound 0.949 µM) of 0.32% and a viability, T/C (second compound 1 µM, first compound 3 µM) of 0.32%.
